# Patent US5618726A, “Biodegradable azo dyes” (priority 1994, dated 1997)
# Like-named read-outs stand apart in the source and are kept apart here.
# What was measured:
# [1] = tested on: S. chromofuscus A20; conditions: streptomyces chromofuscus a20 culture, 336 h
# Experimental: (§5) Each Streptomyces species was grown in a cotton-plugged 250 ml flask containing 25 ml of the following medium: 0.2M Tris buffer (pH 7.6), 100 ml; vitamin-free Casamino acids (Difco), 1.0 g; thiamine, 100 μg; biotin, 100 μg; D-glucose, 2 g; deionized water, 900 ml.
# The dyes were filter-sterilized and added at 0.005% (w/v) to the autoclaved basal medium. Alternatively, azo dye stock solutions were sterilized by filtration (pore size 0.2 μm) and added to autoclaved basal medium at concentrations of 50 or 100 ppm. Three replicates of every culture were incubated, and each strain was grown in media supplemented individually with every substrate. Replicate sterile controls also were run in each experiment. Cultures were incubated at 37° C. for 14 days with shaking (200-250 rpm). Three replicates for each strain growth were incubated in only the basal medium as well.
# A one ml sample of culture medium was centrifuged and then diluted 2.5-5.0 fold (actinomycete culture) or 5- to 10-fold (fungal culture) with distilled water. Alternatively, 1.0 ml of fungal supernatant was centrifuged and diluted 5-fold with 10 mM sodium 2,2-dimethylsuccinate buffer (DMS) of pH 4.5. Azo dye substrate present was then measured spectrophotometrically with a Hewlett-Packard 8452 diode array spectrophotometer operated by a PC Vectra computer equipped with HP's MS™-DOS/UV-VIS software. To be certain that changes in substrate spectra were not due to pH variations, the effects of pH on the visible absorption of each compound were also assayed within physiological pH range in the culture media. […] Thus, the spectrophotometric assays for the dyes were typically carried out at their isobestic points. For instance, the spectrophotometric assays were carried out at 450 nm for azo dye 1 and 400 nm for azo dye 2. […] The compounds were quantified by first developing standard curves of absorbance versus concentrations (0-50 μg) and then comparing measured absorbance values to the standard curves.
# [2] = tested on: S. viridosporus T7A; conditions: streptomyces viridosporus t7a culture, 336 h
# Experimental: as §5
# (§6) The dyes were filter-sterilized and added at 0.005% (w/v) to the autoclaved basal medium. Alternatively, azo dye stock solutions were sterilized by filtration (pore size 0.2 μm) and added to autoclaved basal medium at concentrations of 50 or 100 ppm. Three replicates of every culture were incubated, and each strain was grown in media supplemented individually with every substrate. Replicate sterile controls also were run in each experiment. […] Three replicates for each strain growth were incubated in only the basal medium as well.
# (§7) A one ml sample of culture medium was centrifuged and then diluted 2.5-5.0 fold (actinomycete culture) or 5- to 10-fold (fungal culture) with distilled water. Alternatively, 1.0 ml of fungal supernatant was centrifuged and diluted 5-fold with 10 mM sodium 2,2-dimethylsuccinate buffer (DMS) of pH 4.5. […] To be certain that changes in substrate spectra were not due to pH variations, the effects of pH on the visible absorption of each compound were also assayed within physiological pH range in the culture media. While the spectra of sulfanilic acid (Max abs at 250 nm), vanillic acid (Max abs at 252 nm and 286 nm) and acid yellow 9 (Max abs at 336 nm) were unaffected by pH over the tested pH range, the spectra of several novel azo dyes were changed as evidenced by shifts of their Absmax. Thus, the spectrophotometric assays for the dyes were typically carried out at their isobestic points. […] Spectrophotometric measurements were carried out at the absorbance maxima for azo dyes 16, 17, 18, 19, 31, and 32 (See Table 1 below). […] The compounds were quantified by first developing standard curves of absorbance versus concentrations (0-50 μg) and then comparing measured absorbance values to the standard curves.
# [3] = tested on: S. rochei A14; assay type: cell-based; conditions: streptomyces rochei a14 culture, 336 h
# Excerpt: (§1) Microbiol., 1984, 130:2905-2913.
# (§2) Replicate sterile controls also were run in each experiment.
# [4] = tested on: S. diastaticus A13; assay type: cell-based; conditions: streptomyces diastaticus a13 culture, 336 h
# Excerpt: as §1, §2
# [5] = tested on: S. diastaticus A12; assay type: cell-based; conditions: streptomyces diastaticus a12 culture, 336 h
# Excerpt: as §1, §2
# [6] = tested on: S. rochei A10; assay type: cell-based; conditions: streptomyces rochei a10 culture, 336 h
# Excerpt: as §1, §2
# [7] = tested on: S. badius 252; assay type: cell-based; conditions: streptomyces badius 252 culture, 336 h
# Excerpt: as §1, §2
# [8] = tested on: S. chromofuscus A11; conditions: streptomyces chromofuscus a11 culture, 336 h
# Experimental: as §1, §2
# The Streptomyces were grown on the same media and under the same conditions as previously described. […] Thus, the spectrophotometric assays for substrates 1-12 were carried out at their specific isobastic points. Degradation was calculated as percent of substrates removed from culture broth, considering the evaporation factor (around 10%).
# [9] = tested on: Phanerochaete chrysosporium; experiment: Substrate removal / decolorization by P. chrysosporium culture; assay type: cell-based; conditions: for % Decolorization, P. chrysosporium: 14 days
# Experimental: Environ. Microbiol., 1981, 42:290-296), with the addition of 75 mg adenine (6-aminopurine) and 27 mg L-phenylalanine-per-liter. This addition accelerated the growth of the fungus without inhibiting ligninase activity. […] […] Cultures were incubated at 37° C. for 7 to 15 days with shaking (250 rpm). Solid agar media were also employed.
# [10] = tested on: P. chrysosporium; experiment: Mineralization of 14C-labeled dyes by shaken cultures; assay type: cell-based, Phanerochaete chrysosporium; conditions: for Percentage of radioactivity recovered in CO2, P. chrysosporium / Percentage of radioactivity recovered in biomass (cells), P. chrysosporium / Percentage of radioactivity removed from the medium, P. chrysosporium: 21 days' growth, 200 mg/liter
# Experimental: (§3) Agitated cultures containing 100,000 to 150,000 dpm of azo dye at a concentration of 200 mg/liter for P. chrysosporium and 50 mg/liter for S. chromofuscus were incubated at 37° C. for 20 days with shaking at 200 rpm. For each mineralization experiment six replicates-per-culture were run for P. chrysosporium and three replicates-per-culture for S. chromofuscus. Each culture flask contained a CO2 trap consisting of a small glass cup connected to the bottom of the rubber stopper. The cup contained 1 ml of 1N NaOH. Samples were taken every 2 days, and after each sampling cultures were flushed with 100% oxygen for 30 s. At the sampling time, the stopper was removed and the NaOH containing trapped CO2 was transferred to a 20-ml scintillation vial, and the cup was then rinsed twice with 1 ml of water. Two ml of rinse water were also transferred to the vial. Finally, 10 ml of Ecolite scintillation cocktail (ICN Biochemicals Inc., Irvine, Calif.) were added to each vial. Vials, after mixing, were stored in the dark for 24 h. The cpm of trapped radioactivity was then determined in a Packard Tri-Carb liquid scintillation analyzer, Model 1500, using the ^14 C quench standards and SIS numbers.
# Either a charcoal-containing polyurethane sponge (Bio-Rad Laboratories, Richmond, Calif.) or 2-methoxyethanol was used to trap volatile organic compounds released during mineralization experiments. The sponge (1 cm^3) replaced the 1N NaOH solution in the small glass cap attached to the rubber stopper; other conditions were as before for the ^14 CO2 experiments. For scintillation counting, the charcoal sponges were dissolved in 1 ml of hyamine hydroxide contained in scintillation vials (1M solution in methanol; NEN Research Products, Boston, Mass.) held at 55° C. for 2 h. Ten ml of Ecolite scintillation cocktail were then added and the cpm was measured.
# In the second procedure, cultures with CO2 traps were flushed with oxygen for 10 min, and the organic volatiles present were trapped in 10 ml of 2-methoxyethanol mixed with 10 ml Ecolite.
# (§4) The removal of radioactivity from the media was determined by measuring the amount of ^14 C label in 0.1 ml of the medium at time 0 and 21 days for each culture. Uninoculated cultures were used as evaporation controls. […] At the end of each mineralization experiment, culture broths were acidified with 5 ml of 1M H3 PO4, fresh 1N NaOH was added to the trap, and the cultures were shaken overnight. No additional releases of ^14 CO2 were observed. The radioactivity assimilated by the cells was measured by solubilizing biomass harvested from each 21-day-old culture in an equal volume of hyamine hydroxide solution. Before solubilization, cells were washed three times with 50 ml of distilled water to remove adsorbed dyes. Ecolite 10 ml was added to the mixture, which was vortexed vigorously. To increase counting efficiency, the solution of biomass-hyamine-scintillation cocktail was further diluted 10 to 20 times with fresh Ecolite before counting.
# [11] = tested on: ligninase; experiment: Oxidation of dyes by P. chrysosporium ligninase (crude preparation); assay type: biochemical, Phanerochaete chrysosporium; conditions: for Oxidation / decolorization by ligninase: pH3, 0.2 mM hydrogen peroxide, 15-minute incubation
# Summary of the method: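 Crude P. chrysosporium ligninase oxidation of dyes, assayed by a previously reported method; conditions as for acid yellow 9, readings every 30 s for up to 15 minutes.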
# [12] = tested on: Streptomyces chromofuscus; experiment: Mineralization of 14C-labeled dyes by shaken cultures; assay type: cell-based; conditions: 21 days' growth, 50 mg/liter
# Experimental: as §3, §4
# [13] = tested on: Mn(II)-peroxidase; experiment: Oxidation of dyes by P. chrysosporium Mn(II)-peroxidase; assay type: biochemical, Phanerochaete chrysosporium; conditions: for Oxidation by manganese peroxidase: 15-minute incubation period
# [14] = tested on: Streptomyces spp.; experiment: Decolorization of naphthol azo dyes by Streptomyces spp.; assay type: cell-based
# Excerpt: as §1, §2
# [15] = tested on: S. viridosporus T7A; experiment: Substrate removal by Streptomyces culture; conditions: growth period 14 days
# Experimental: as §5, §6, §7
# [16] = tested on: S. rochei A4; experiment: Substrate removal by Streptomyces culture; assay type: cell-based, Streptomyces rochei; conditions: growth period 14 days
# Excerpt: as §2
# [17] = target: T1, horseradish peroxidase type II (Armoracia rusticana, UniProt P00433); experiment: Oxidation of azo dyes by horseradish peroxidase preparation; assay type: biochemical; conditions: pH 8, 37° C., H2O2
# T1 sequence (P00433 31-338): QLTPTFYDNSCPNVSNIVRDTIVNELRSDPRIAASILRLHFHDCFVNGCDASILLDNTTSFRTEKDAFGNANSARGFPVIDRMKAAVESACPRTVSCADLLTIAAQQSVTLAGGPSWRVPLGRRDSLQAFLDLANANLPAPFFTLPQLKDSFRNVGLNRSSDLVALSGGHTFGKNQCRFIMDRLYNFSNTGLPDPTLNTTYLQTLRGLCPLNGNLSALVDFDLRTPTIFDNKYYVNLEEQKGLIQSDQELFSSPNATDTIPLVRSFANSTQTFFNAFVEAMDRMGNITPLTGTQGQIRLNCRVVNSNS
# Experimental: The reaction was started with the addition of 100 μl of 50 mM H2 O2 and was followed for 1 min at 37° C. Controls were run with no addition of H2 O2 or with the addition of the hemeperoxidase inhibitor KCN (final concentration 25 μM).
# [18] = tested on: S. chromofuscus A11 extracellular peroxidase; experiment: Oxidation of azo dyes by S. chromofuscus A11 crude enzyme preparation; assay type: biochemical, Streptomyces chromofuscus A11; conditions: pH 8, 37° C., H2O2
# Summary of the method: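 Enzyme from 48 h S. chromofuscus A11 culture supernatant, concentrated, ammonium sulfate-precipitated, dialyzed in 20 mM HEPES pH 8; yellow Sephadex G-25 fraction used. Reaction started with 100 μl 50 mM H2O2, followed 1 min at 37° C; controls without H2O2 or with 25 μM KCN.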
# [19] = tested on: Mn(II)-peroxidase; experiment: Oxidation of dyes by P. chrysosporium Mn(II)-peroxidase; assay type: biochemical, Phanerochaete chrysosporium; conditions: crude enzyme, conditions specific for Mn(II)-peroxidase
# [20] = p. chrysosporium culture, 168 h
smiles,measurement,setting,value
"COc1cc(N=Nc2ccc(N=Nc3ccc(S(=O)(=O)O)cc3)cc2S(=O)(=O)O)ccc1O [Azo dye 1, 4-(3-methoxy-4-hydroxyphenylazo)-azobenzene-3,4'-disulfonic acid]","Percent substrate removed, S. chromofuscus A20",[1],1%
same,"Percent substrate removed, S. viridosporus T7A",[2],1%
same,"Percent substrate removed, S. rochei A14",[3],43%
same,"Percent substrate removed, S. diastaticus A13",[4],15%
same,"Percent substrate removed, S. diastaticus A12",[5],27%
same,"Percent substrate removed, S. rochei A10",[6],51%
same,"Percent substrate removed, S. badius 252",[7],9%
same,"Percent substrate removed, S. chromofuscus A11",[8],56%
same,"Percent substrate removed, P. chrysosporium",[9]; growth period 7 days,93%
"COc1cc(N=Nc2ccc(S(=O)(=O)O)cc2)ccc1O [Azo dye 2, 3-methoxy-4-hydroxy-azobenzene-4'-sulfonic acid]","Percent substrate removed, S. chromofuscus A20",[1],11%
same,"Percent substrate removed, S. viridosporus T7A",[2],9%
same,"Percent substrate removed, S. rochei A14",[3],72%
same,"Percent substrate removed, S. diastaticus A13",[4],21%
same,"Percent substrate removed, S. diastaticus A12",[5],30%
same,"Percent substrate removed, S. rochei A10",[6],74%
same,"Percent substrate removed, S. badius 252",[7],18%
same,"Percent substrate removed, S. chromofuscus A11",[8],89%
same,"Percent substrate removed, P. chrysosporium",[9]; growth period 7 days,94%
"Nc1ccc(N=Nc2ccc(S(=O)(=O)O)cc2)cc1S(=O)(=O)O [Azo dye 18, 4-amino-1,1'-azobenzene-3,4'-disulfonic acid]","Percentage of radioactivity recovered in CO2, P. chrysosporium",[10],26.9%
same,"Percentage of radioactivity recovered in biomass (cells), P. chrysosporium",[10],2.3%
same,"Percentage of radioactivity removed from the medium, P. chrysosporium",[10],33.0%
same,Amount of dye decolorized by ligninase,"[11]; out of 10 micrograms, 15 minutes, pH3, 0.6 units of enzyme",about 3 micrograms
same,"Percentage of radioactivity recovered in CO2, Streptomyces chromofuscus",[12],0.0%
same,"Percentage of radioactivity recovered in biomass (cells), Streptomyces chromofuscus",[12],0.0%
same,"Percentage of radioactivity removed from the medium, Streptomyces chromofuscus",[12],0.0%
same,Oxidation by manganese peroxidase,[13],not detected
same,"Percent substrate removed, P. chrysosporium",[9]; [20],79%
"O=S(=O)(O)c1ccc2c(N=Nc3ccccc3)c(O)ccc2c1 [Azo dye 19, 1-phenylazo-2-hydroxynaphthalene-6-sulfonic acid]",Decolorization by Streptomyces spp.,[14],not
"O=S(=O)(O)c1ccc(N=Nc2c(O)ccc3ccccc23)cc1 [Azo dye 31, 4-(2-hydroxy-1-naphthylazo)benzenesulfonic acid]",Decolorization by Streptomyces spp.,[14],not
"Nc1ccc(S(=O)(=O)O)cc1 [Sulfanilic acid, 4-Amino-[U-^14 C]benzenesulfonic acid]","Percentage of radioactivity recovered in biomass (cells), P. chrysosporium",[10],1.3%
same,"Percentage of radioactivity removed from the medium, P. chrysosporium",[10],25.0%
same,"Percentage of radioactivity recovered in CO2, P. chrysosporium",[10]; listed as Sulfanilic Acid,17.2%
same,"Percentage of radioactivity recovered in CO2, P. chrysosporium",[10]; listed as sulfanilic acid,17%
same,Start of mineralization in the fungal culture,[10]; P. chrysosporium,tenth day
same,Oxidation / decolorization by ligninase,[11],transformed slowly
same,"Percentage of radioactivity recovered in CO2, Streptomyces chromofuscus",[12],0.0%
same,"Percentage of radioactivity recovered in biomass (cells), Streptomyces chromofuscus",[12],0.0%
same,"Percentage of radioactivity removed from the medium, Streptomyces chromofuscus",[12],0.0%
same,Oxidation by manganese peroxidase,[13],not detected
same,"Percent substrate removed, P. chrysosporium",[9]; [20],68%
"COc1cc(C(=O)O)ccc1O [Vanillic acid, 4-hydroxy-3-methoxybenzoic acid, reference compound]","Percent substrate removed, S. chromofuscus A20",[1],5%
same,"Percent substrate removed, S. rochei A14",[3],72%
same,"Percent substrate removed, S. diastaticus A13",[4],34%
same,"Percent substrate removed, S. diastaticus A12",[5],58%
same,"Percent substrate removed, S. rochei A10",[6],91%
same,"Percent substrate removed, S. badius 252",[7],7%
same,"Percent substrate removed, S. chromofuscus A11",[8],100%
same,"Percent substrate removed, S. viridosporus T7A",[15],3%
same,"Percent substrate removed, S. rochei A4",[16],100%
COc1cc(N=Nc2ccc(N=Nc3ccc(S(=O)(=O)O)cc3)cc2S(=O)(=O)O)ccc1O [compound 1],"Oxidation rate of azo dyes, Horseradish peroxidase",[17],8.24 μmoles per minute per ml
same,"Oxidation rate of azo dyes, P. chrysosporium Ligninase","[11]; crude enzyme, conditions specific for ligninase",0.44 μmoles per minute per ml
same,Oxidation / decolorization by ligninase,[11],not detected
same,"Degradation by manganese peroxidase (HPLC, words)",[13]; one hour incubation,almost completely degraded
same,"Oxidation rate of azo dyes, S. chromofuscus peroxidase",[18],1.78 μmoles per minute per ml
same,Degradation by Phanerochaete fungus,"[9]; growth period of seven days, starting dye 150-200 ppm (FIG. 3), 10080 min",90%
same,"% Decolorization, P. chrysosporium",[9]; initial concn 150 ppm,99%
same,"% Decolorization, P. chrysosporium",[9]; initial concn 300 ppm,62%
same,"Oxidation rate of azo dyes, P. chrysosporium Mn-peroxidase",[19],3.06 μmoles per minute per ml
